According to patent US20080200454A1, “CARBON-LINKED TETRAHYDRO-PYRAZOLO-PYRIDINE MODULATORS OF CATHEPSIN S” (priority 2007, published 2008):
pIC50: −log10 of the molar value.
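Note: Baculovirus-expressed CatS in pH 5.0 sodium acetate buffer with DTT and NaCl, fluorescence read each minute over 20 min, inhibition derived from rate slope.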

Each molecule was assayed against Recombinant human cathepsin S (CatS) (Homo sapiens, UniProt P25774) (assay: Recombinant human cathepsin S (CatS) inhibition assay, fluorogenic substrate Z-Valine-Valine-Arginine-AMC). Details: not given.
Chain of Recombinant human cathepsin S (CatS) (P25774 115-331): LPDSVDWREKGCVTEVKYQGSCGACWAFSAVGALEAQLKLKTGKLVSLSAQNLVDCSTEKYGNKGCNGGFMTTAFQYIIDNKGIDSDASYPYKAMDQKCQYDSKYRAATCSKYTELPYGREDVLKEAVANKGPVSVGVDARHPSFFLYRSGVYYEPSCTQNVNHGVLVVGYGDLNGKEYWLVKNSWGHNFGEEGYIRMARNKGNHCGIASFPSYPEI
For `CS(=O)(=O)N1CCc2c(c(-c3ccc(Cl)c(C#Cc4ccc(CN[C@@H](CO)c5ccccc5)cc4)c3)nn2CCCN2CCC(N3CCCC3=O)CC2)C1` [Example 352, 1-(1-{3-[3-(4-Chloro-3-{[4-({[(1R)-2-hydroxy-1-phenylethyl]amino}methyl)phenyl]ethynyl}phenyl)-5-(methylsulfonyl)-4,5,6,7-tetrahydro-1H-pyrazolo[4,3-c]pyridin-1-yl]propyl}piperidin-4-yl)pyrrolidin-2-one], the pIC50 was 7.70.
Work on `CS(=O)(=O)N1CCc2c(c(-c3ccc(Cl)c(C#Cc4ccc5c(c4)CN(C4CC4)CC5)c3)nn2CCCN2CCOCC2)C1` [Example 396, 7-({2-Chloro-5-[5-(methylsulfonyl)-1-(3-morpholin-4-ylpropyl)-4,5,6,7-tetrahydro-1H-pyrazolo[4,3-c]pyridin-3-yl]phenyl}ethynyl)-2-cyclopropyl-1,2,3,4-tetrahydroisoquinoline] yielded a pIC50 of 6.64.
`NC(=O)N1CCc2c(c(-c3ccc(Cl)c(C#Cc4ccc(COCc5cccnc5)cc4)c3)nn2CCCN2CCSCC2)C1` [Example 161, 3-{4-Chloro-3-[(4-{[(pyridin-3-ylmethyl)oxy]methyl]phenyl)ethynyl]phenyl}-1-(3-thiomorpholin-4-ylpropyl)-1,4,6,7-tetrahydro-5H-pyrazolo[4,3-c]pyridine-5-carboxamide] gave a pIC50 of 7.15.
Molecule `C[C@H]1COCCN1CCCn1nc(-c2ccc(Cl)c(C#Cc3ccc(Cl)c(C(=O)NCC4CCCNC4)c3)c2)c2c1CCN(C(=O)C(N)=O)C2` (stereo partly drawn) [Example 587, 5-{[5-(5-[Amino(oxo)acetyl]-1-{3-[(3S)-3-methylmorpholin-4-yl]propyl}-4,5,6,7-tetrahydro-1H-pyrazolo[4,3-c]pyridin-3-yl)-2-chlorophenyl]ethynyl}-2-chloro-N-(piperidin-3-ylmethyl)benzamide] has a pIC50 of 7.70.
For `NC(=O)C(=O)N1CCc2c(c(-c3ccc(Cl)c(C#Cc4ccc(CNCc5ccc(Cl)cc5)cc4)c3)nn2CCCN2C[C@@H]3C[C@H]2CO3)C1` [Example 435, 2-[3-(4-Chloro-3-{[4-({[(4-chlorophenyl)methyl]amino}methyl)phenyl]ethynyl}phenyl)-1-{3-[(1S,4S)-2-oxa-5-azabicyclo[2.2.1]hept-5-yl]propyl}-1,4,6,7-tetrahydro-5H-pyrazolo[4,3-c]pyridin-5-yl]-2-oxoacetamide], the pIC50 was 7.10.

Same assay, conditions: CatS IC50
`CC(C)(C)OC(=O)NC1CCN(CCCn2nc(-c3ccc(Cl)c(C#Cc4ccc(CNCc5ccc(Cl)cc5)cc4)c3)c3c2CCN(S(C)(=O)=O)C3)CC1` [Example 329, 1,1-Dimethylethyl (1-{3-[3-(4-chloro-3-{[4-({[(4-chlorophenyl)methyl]amino}methyl)phenyl]ethynyl}phenyl)-5-(methylsulfonyl)-4,5,6,7-tetrahydro-1H-pyrazolo[4,3-c]pyridin-1-yl]propyl}piperidin-4-yl)carbamate] gave a pIC50 of 7.52.
Work on `NC(=O)C(=O)N1CCc2c(c(-c3ccc(Cl)c(C#Cc4ccc(CNCc5ccc(Cl)cc5)cc4)c3)nn2CCCN2CCC3(CC2)OCCO3)C1` [Example 451, 2-{3-(4-Chloro-3-{[4-({[(4-chlorophenyl)methyl]amino}methyl)phenyl]ethynyl}phenyl)-1-[3-(1,4-dioxa-8-azaspiro[4.5]dec-8-yl)propyl]-1,4,6,7-tetrahydro-5H-pyrazolo[4,3-c]pyridin-5-yl}-2-oxoacetamide] yielded a pIC50 of 7.00.
`CS(=O)(=O)N1CCc2c(c(-c3ccc(Cl)c(C#Cc4ccc(CNCc5ccc(Cl)cc5)cc4)c3)nn2CCCN2CCC(C(=O)O)CC2)C1` [Example 336, 1-{3-[3-(4-Chloro-3-{[4-({[(4-chlorophenyl)methyl]amino}methyl)phenyl]ethynyl}phenyl)-5-(methylsulfonyl)-4,5,6,7-tetrahydro-1H-pyrazolo[4,3-c]pyridin-1-yl]propyl}piperidine-4-carboxylic acid] showed a pIC50 of 6.82.
